{
  "source": "paper PMC8008885",
  "about": "(Journal of Enzyme Inhibition and Medicinal Chemistry, 2021)",
  "key": {"[1]": {"test_system": "HD (Q111/Q111) striatal cells", "assay": "Confocal microscopy of H3K9me3 immunoreactivity in HD cells", "format": "cell-based", "description": "Immunofluorescence staining and confocal microscopy was used to determine the trimethylated-histone H3 (Lys9) (H3K9me3) (Millipore, Billerica, MA) (1:1000). The procedures were performed as previously described. The specimens were incubated for 1 h with Alexa Fluor 594 goat anti-rabbit antibody (abcam, Cambridge, UK; 1:400) after incubation of the primary antibody. Images were analysed using an A1 Nikon confocal laser scanning microscope (Nikon, Tokyo, Japan).\nMoreover, the promoter assay was carried out."}, "YAC128 mice [2]": {"test_system": "YAC128 mice", "assay": "Rotarod test in HD transgenic (YAC128) mice", "format": "in vivo, mouse", "settings": "i.p. five times a week, after 4 weeks, vs vehicle treated YAC128 mice", "description": "(§1) YAC128 mice were bred with females from their background strain (B6CBAFI/J), and offspring were genotyped using PCR as previously described. All mice were weighed at 3 weeks of age and equally distributed according to weight and percentage within each cohort. […] The biochemical and behavioural/neuropathological symptoms of mice were determined after 4 weeks of drug administration. These procedures were performed in accordance with Guide for the Care and Use of Laboratory Animals guidelines. The animal protocol was approved by IACUC (Institutional Animal Care and Use Committee) in Hanyang University, Ansan, Republic of Korea."}, "YAC128 mice [3]": {"test_system": "YAC128 mice", "assay": "Toxicity on administration to YAC128 mice", "format": "in vivo", "settings": "HD transgenic (YAC128) mice", "description": "as §1"}},
  "data": [
    {"compound": "C=CCOc1cccc2nc(N3CCCC3)ccc12", "note": "[APQ, 5-allyloxy-2-(pyrrolidin-1-yl)quinoline]", "values": [
      {"measurement": "H3K9me3 immunoreactivity", "setting": "[1]", "value": "considerably decreased"},
      {"measurement": "motor behaviour (rotarod test)", "setting": "YAC128 mice [2]", "value": "significantly improved"},
      {"measurement": "toxicity", "setting": "YAC128 mice [3]", "value": "minimal toxicity"}
    ]}
  ]
}
